Test results from patent US10329324B2 (viDA Therapeutics Inc., priority 2013, dated 2019).
Like-named read-outs stand apart in the source and are kept apart here.

Target: T1, human Granzyme B (hGzmB) (Homo sapiens, UniProt P10144)
T1 construct: purchased Froelich Lab, Northshore University Health Systems Research Institute, Evanston, Ill., USA
Assay: Human Granzyme B enzymatic inhibition assay (fluorogenic, kinetic)
Format: biochemical
Description: A specific 2× assay buffer was prepared for the enzyme to be tested (see Table 2 for final 1× assay buffer compositions). If the assay buffer included DTT, it was added immediately prior to running the assay. A 2× enzyme mix was prepared (see Table 3 for enzyme assay conditions) at 80 uL per well. Compounds were screened at one or two appropriate concentrations (to determine the percent inhibition at those concentrations) and/or a full dose response curve (typically 8 points, to identify the IC50) in duplicate, triplicate, or higher replicates as needed. An appropriate control was also assessed in full dose response, in duplicate for each assay/plate. Background control wells consisted of 1× assay buffer, DMSO (5% v/v) and substrate. Positive control wells consisted of enzyme, DMSO (5% v/v) and substrate. Test compounds and control compounds were diluted in DMSO to […] the final desired concentration. For example, a test compound may be tested in dose response, in serial, tripling dilution condition starting at 20 uM and ending at 9.1 nM (or any appropriate concentration range and dilution scheme). Control compounds were prepared similarly. Diluted compounds were prepared in a dilution plate and transferred to the reaction plate (96-well medium binding plate (Greiner Bio-One FLUOTRAC™)) to allow for the desired final concentrations when added to the enzyme with AB. After mixing, the reaction plate was placed on a shaker (at 300 RPM) for 5 min, followed by incubation (covered) on the bench, for 20 min. Plates were warmed to reaction temperature (see Table 3) for a total incubation time of 30 min. Plates so prepared were ready for addition of substrate and the subsequent reaction.
(§1) An appropriate substrate for each assay was prepared in advance at 2× the final desired concentration (see Table 2) in DMSO. The appropriate substrate mix was added to each appropriate well on the reaction plate, and the plate was read immediately in the TECAN plate reader (TECAN INFINITE® M1000 Pro), set to the correct wavelength as needed for each assay (see Table 3) using 25 cycles, kinetic interval of 1 min, number of reads per well of 20 with shaking set to 1 s, double orbital, 2 mm amplitude. For fluorescent assays the gain was set to optimal (50%).
An in vitro fluorogenic detection assay for assessing the IC50 and/or percent inhibition at a given concentration of inhibitors against human Granzyme B (hGzmB) enzyme was performed as described in Example D1. When appropriate, percent inhibition data was collected and fitted to generate IC50 data using GraphPad Prism 5 (GraphPad Software, La Jolla Calif. USA, www.graphpad.com) and its non-linear regression analysis tools or other equivalent tools. […]
as §1, with “5)” for “2)”, “assay buffer. 30 uL of the” for “DMSO. The”, “6)” for “3)”, “15” for “25”, “(100% with gain regulation) for all assays except human GzmB which was set to 85 (with the z set at 23000 um).” for “(50%).”
An in vitro fluorogenic detection assay for assessing the IC50 and/or percent inhibition at a given concentration of inhibitors against human Granzyme B (hGzmB) enzyme was performed as described in Example D5. When appropriate, percent inhibition data was collected and fitted to generate IC50 data using GraphPad Prism 5 (GraphPad Software, La Jolla Calif. USA, www.graphpad.com) and its non-linear regression analysis tools or other equivalent tools.

[1] = activity codes, Table 7, read-out: IC50 Activity Range

T1 sequence (P10144 21-247): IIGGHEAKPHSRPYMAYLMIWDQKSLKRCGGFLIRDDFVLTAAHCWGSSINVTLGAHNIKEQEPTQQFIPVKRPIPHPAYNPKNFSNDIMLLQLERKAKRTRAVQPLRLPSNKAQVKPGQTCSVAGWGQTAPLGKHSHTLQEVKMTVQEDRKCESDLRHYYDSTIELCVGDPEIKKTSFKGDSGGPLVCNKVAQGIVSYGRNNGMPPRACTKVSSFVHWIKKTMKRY

Row | IC50 [1] [nM] | Compound | IC50 [nM]
1 | 100 to 1000 | O=C(O)CCC(=O)N[C@H](C(=O)NCC(=O)N1c2ccccc2C[C@H]1C(=O)NCc1nn[nH]n1)c1ccccc1 [Example C38, 3-{[(S)-({2-Oxo-2-[(2S)-2-[(2H-1,2,3,4-Tetrazol-5-Ylmethyl)Carbamoyl]-2,3-Dihydro-1H-Indol-1-Yl]Ethyl}Carbamoyl)(Phenyl)Methyl]Carbamoyl}Propanoic Acid] | 
2 | 1000 to 10000 | CC[C@H](C)[C@H](NC(=O)Cc1ccccc1)C(=O)NCC(=O)N1c2cc(OC)ccc2CC1C(=O)NCc1c[nH]nn1 (stereo partly drawn) [Example B6, 6-Methoxy-1-{2-[(2S,3S)-3-Methyl-2-(2-Phenylacetamido)Pentanamido]Acetyl}-N-(1H-1,2,3-Triazol-5-Ylmethyl)-2,3-Dihydro-1H-Indole-2-Carboxamide] | 
3 | 100 to 1000 | CC[C@H](C)[C@H](NC(=O)[C@H](C)CC(=O)OC)C(=O)NCC(=O)N1c2ccccc2C[C@H]1C(=O)NCc1nn[nH]n1 [Example A29, Methyl (3R)-3-Methyl-3-{[(1S,2S)-2-Methyl-1-({2-Oxo-2-[(2S)-2-[(2H-1,2,3,4-Tetrazol-5-Ylmethyl)Carbamoyl]-2,3-Dihydro-1H-Indol-1-Yl]Ethyl}Carbamoyl)Butyl]Carbamoyl}Propanoate] | 
4 |  | CC[C@H](C)[C@H](NC(=O)[C@@H](N)CC(=O)O)C(=O)NCC(=O)N1c2ccccc2C[C@H]1C(=O)NCc1nn[nH]n1 [Example A37, (3S)-3-Amino-3-{[(1S,2S)-2-Methyl-1-({2-Oxo-2-[(2S)-2-[(2H-1,2,3,4-Tetrazol-5-Ylmethyl)Carbamoyl]-2,3-Dihydro-1H-Indol-1-Yl]Ethyl}Carbamoyl)Butyl]Carbamoyl}Propanoic Acid] | 100 to 1000
5 | > 10000 | CC[C@H](C)[C@H](NC(=O)Cc1ccccc1)C(=O)NCC(=O)N1c2ccc(NCc3ccccc3)cc2C[C@H]1C(=O)NCc1nn[nH]n1 [Example C35] | 
6 | 1000 to 10000 | CC[C@H](C)[C@H](NC(=O)Cc1ccccc1)C(=O)NCC(=O)N1c2ccccc2CCC1C(=O)NCc1c[nH]nn1 (mixture of isomers) [Example B5, (2S)-1-{2-[(2S,3S)-3-Methyl-2-(2-Phenylacetamido)Pentanamido]Acetyl}-N-(1H-1,2,3-Triazol-4-Ylmethyl)-1,2,3,4-Tetrahydroquinoline-2-Carboxamide] | 
7 | > 10000 | O=C(O)CCC(=O)N1CCC[C@H]1C(=O)NCC(=O)N1c2ccccc2C[C@H]1C(=O)NCc1nn[nH]n1 [Example C28, 4-Oxo-4-[(2S)-2-({2-Oxo-2-[(2S)-2-[(2H-1,2,3,4-Tetrazol-5-Ylmethyl)Carbamoyl]-2,3-Dihydro-1H-Indol-1-Yl]Ethyl}Carbamoyl)Pyrrolidin-1-Yl]Butanoic Acid] | 
8 | < 100 | CC[C@H](C)[C@H](NC(=O)CCCCC(=O)O)C(=O)NCC(=O)N1c2ccccc2C[C@H]1C(=O)NCc1nn[nH]n1 [Example A5, 5-{[(1S,2S)-2-Methyl-1-({2-Oxo-2-[(2S)-2-[(2H-1,2,3,4-Tetrazol-5-Ylmethyl)Carbamoyl]-2,3-Dihydro-1H-Indol-1-Yl]Ethyl}Carbamoyl)Butyl]Carbamoyl}Pentanoic Acid] | 
9 | < 100 | CC[C@H](C)[C@H](NC(=O)/C=C/C(=O)O)C(=O)NCC(=O)N1c2ccccc2C[C@H]1C(=O)NCc1nn[nH]n1 [Example A36, (2E)-3-{[(1S,2S)-2-Methyl-1-({2-Oxo-2-[(2S)-2-[(2H-1,2,3,4-Tetrazol-5-Ylmethyl)Carbamoyl]-2,3-Dihydro-1H-Indol-1-Yl]Ethyl}Carbamoyl)Butyl]Carbamoyl}Prop-2-Enoic Acid] | 
10 | > 10000 | CC[C@H](C)[C@H](Nc1ncccn1)C(=O)NCC(=O)N1c2ccccc2C[C@H]1C(=O)NCc1nn[nH]n1 [Example C26, (2S)-1-{2-[(2S,3S)-3-Methyl-2-[(Pyrimidin-2-Yl)Amino]Pentanamido]Acetyl}-N-(2H-1,2,3,4-Tetrazol-5-Ylmethyl)-2,3-Dihydro-1H-Indole-2-Carboxamide] | 
11 | 1000 to 10000 | CO[C@H](C)[C@H](NC(=O)Cc1ccccc1)C(=O)NCC(=O)N1c2ccccc2C[C@H]1C(=O)NCc1nn[nH]n1 [Example C7, (2S)-1-{2-[(2S,3R)-3-Methoxy-2-(2-Phenylacetamido)Butanamido]Acetyl}-N-(2H-1,2,3,4-Tetrazol-5-Ylmethyl)-2,3-Dihydro-1H-Indole-2-Carboxamide] | 
12 | 100 to 1000 | CC[C@H](C)[C@H](NC(=O)Cc1ccccc1)C(=O)NCC(=O)N1c2ccc(NC(=O)OC(C)(C)C)cc2C[C@H]1C(=O)NCc1nn[nH]n1 [Example C31, Tert-Butyl N-[(2S)-1-{2-[(2S,3S)-3-Methyl-2-(2-Phenylacetamido)Pentanamido]Acetyl}-2-[(2H-1,2,3,4-Tetrazol-5-Ylmethyl)Carbamoyl]-2,3-Dihydro-1H-Indol-5-Yl]Carbamate] | 
13 | > 10000 | CC[C@H](C)[C@H](NC(=O)Cc1ccccc1)C(=O)NCC(=O)N1c2c(cccc2NC(C)=O)C[C@H]1C(=O)NCc1nn[nH]n1 [Example C30, (2S)-7-Acetamido-1-{2-[(2S,3S)-3-Methyl-2-(2-Phenylacetamido)Pentanamido]Acetyl}-N-(2H-1,2,3,4-Tetrazol-5-Ylmethyl)-2,3-Dihydro-1H-Indole-2-Carboxamide] | 
14 | 1000 to 10000 | CC[C@H](C)[C@H](NC(=O)Cc1ccccc1)C(=O)N[C@@H](CC(=O)O)C(=O)N1c2ccccc2C[C@H]1C(=O)NCc1nn[nH]n1 [Example C14] | 
15 | < 100 | CC[C@H](C)[C@H](NC(=O)C1=C(C(=O)O)CCCC1)C(=O)NCC(=O)N1c2ccccc2C[C@H]1C(=O)NCc1nn[nH]n1 [Example A31] | 
16 | > 10000 | CC[C@H](C)[C@H](NC(=O)Cc1ccccc1)C(=O)NCC(=O)N1c2cc(NCc3ccccc3)ccc2C[C@H]1C(=O)NCc1nn[nH]n1 [Example C21, (2S)-6-(Benzylamino)-1-{2-[(2S,3S)-3-Methyl-2-(2-Phenylacetamido)Pentanamido]Acetyl}-N-(2H-1,2,3,4-Tetrazol-5-Ylmethyl)-2,3-Dihydro-1H-Indole-2-Carboxamide] | 
17 | 100 to 1000 | CC[C@H](C)[C@H](NC(=O)CCC(=O)OCCOC(=O)C(C)(C)C)C(=O)NCC(=O)N1c2ccccc2C[C@H]1C(=O)NCc1nn[nH]n1 [Example A47, 2-[(2,2-Dimethylpropanoyl)Oxy]Ethyl 3-{[(1S,2S)-2-Methyl-1-({2-Oxo-2-[(2S)-2-[(2H-1,2,3,4-Tetrazol-5-Ylmethyl)Carbamoyl]-2,3-Dihydro-1H-Indol-1-Yl]Ethyl}Carbamoyl)Butyl]Carbamoyl}Propanoate] | 
18 | 1000 to 10000 | CC[C@H](C)[C@H](NC(=O)OC(C)(C)C)C(=O)NCC(=O)N1c2ccccc2C[C@H]1C(=O)NCc1nn[nH]n1 [Example I-5, tert-Butyl N-[(1S,2S)-2-methyl-1-({2-oxo-2-[(2S)-2-[(2H-1,2,3,4-tetrazol-5-ylmethyl)carbamoyl]-2,3-dihydro-1H-indol-1-yl]ethyl}carbamoyl)butyl]carbamate] | 

Row | Compound | IC50 [1] [nM] | IC50 [nM]
19 | C[C@H](OC(C)(C)C)[C@H](NC(=O)Cc1ccccc1)C(=O)NCC(=O)N1c2ccccc2C[C@H]1C(=O)NCc1nn[nH]n1 [Example C10, (2S)-1-{2-[(2S,3S)-3-(Tert-Butoxy)-2-(2-Phenylacetamido)Butanamido]Acetyl}-N-(2H-1,2,3,4-Tetrazol-5-Ylmethyl)-2,3-Dihydro-1H-Indole-2-Carboxamide] | > 10000 | 
20 | C[C@@H](OC(C)(C)C)[C@H](NC(=O)Cc1ccccc1)C(=O)NCC(=O)N1c2ccccc2C[C@H]1C(=O)NCc1nn[nH]n1 [Example C9, (2S)-1-{2-[(2S,3R)-3-(Tert-Butoxy)-2-(2-Phenylacetamido)Butanamido]Acetyl}-N-(2H-1,2,3,4-Tetrazol-5-Ylmethyl)-2,3-Dihydro-1H-Indole-2-Carboxamide] | > 10000 | 
